Assay results published in patent US8153630B2, “Kinase inhibitors” (Miikana Therapeutics, Inc., priority 2004, dated 2012).

Key:
[1] = tested on: HCT 116 Cells; test: Aurora kinase whole cell cytotoxicity assay: Sulforhodamine B; assay type: cell-based; settings: Homo sapiens, HCT116, SRB staining, 96 hours incubation
Description: Human tumour-derived cell lines, HCT116 or MCF7 (ATCC) were plated in a 96 well plate in DMEM containing 10% fetal bovine serum and 2 mM L-glutamine at a density of 500 HCT116 cells or 1,000 MCF7 cells per well and incubated at 37° C., 5% CO2, for 24 hours prior to the addition of experimental compounds. Compounds were added using the dilution series indicated to duplicate plates and the cells were incubated in media plus compound for 96 hours. An additional plate was fixed in 10% TCA at the time of the addition of compound to provide a measurement of the cell population at time zero, the time of drug addition. Following the 96 hour incubation, cells were fixed in situ by gently aspirating off the culture media and then adding 50 ul of ice cold 10% TCA per well and incubation at 4° C. for 60 minutes. The plates were washed with tap water five times and allowed to air dry for 5 minute. 50 ul of a 0.4% (w/v) Sulforhodamine B solution in 1% (v/v) acetic acid was added per well and the cells were incubated for 30 minutes at room temperature. Following staining, plates were washed four times with 1% acetic acid to remove any unbound dye and then allowed to air dry for 5 minutes. The stain was solubilized with 100 ul of 10 mM Tris pH 10.5 per well and placed on an orbital rotator for 5 minutes. The absorbance was read at 570 nm. Percentage growth was calculated using the absorbance readings from the time zero plate (Tz) and the dilution series plate […] which included a column of cells grown in media without compound as a control (C) using the formulas: [(Ti−Tz)/(C−Tz)]×100 for concentrations for which Ti>/=Tz [(Ti−Tz)/Tz]×100 for concentrations for which Ti<Tz.
Three dose response parameters were calculated for each experimental agent. Growth inhibition of 50% (GI50) was calculated from [(Ti−Tz)/(C−Tz)]×100=50, which was the drug concentration resulting in a 50% reduction in the net protein increase (as measured by SRB staining) in control cells during the drug incubation. The drug concentration resulting in total growth inhibition (TGI) was calculated from Ti=Tz. The LC50 (concentration of drug resulting in a 50% reduction in the measured protein at the end of the drug treatment as compared to that at the beginning) indicating a net loss of cells following treatment ws calculated from [(Ti−Tz)/Tz]×100=−50. Values are calculated for each of these three parameters if the level of activity was reached; however, if the effect was not reached or was exceeded, the value for that parameter is expressed as greater or less than the maximum or minimum concentration tested.

[2] = target: T1, recombinant Aurora A (Homo sapiens, UniProt O14965); test: PanVera Z'-Lyte Aurora kinase assay; assay type: biochemical; settings: Z'-Lyte Ser/Thr 1 peptide 2 μM, ATP 10 μM, 1 h
T1 construct: purchased Upstate, Lake Placid, N.Y
T1 sequence (O14965 1-403): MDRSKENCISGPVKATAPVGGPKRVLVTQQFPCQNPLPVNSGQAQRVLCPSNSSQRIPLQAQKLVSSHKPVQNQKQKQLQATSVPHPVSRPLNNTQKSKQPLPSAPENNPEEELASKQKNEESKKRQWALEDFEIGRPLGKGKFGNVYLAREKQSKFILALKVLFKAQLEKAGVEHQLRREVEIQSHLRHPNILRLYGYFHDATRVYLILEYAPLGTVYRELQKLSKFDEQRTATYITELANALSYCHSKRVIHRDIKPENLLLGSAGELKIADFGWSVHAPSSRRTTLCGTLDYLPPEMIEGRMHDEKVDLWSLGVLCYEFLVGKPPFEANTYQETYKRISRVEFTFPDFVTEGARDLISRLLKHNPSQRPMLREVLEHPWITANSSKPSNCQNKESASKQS
Description: Compounds 7-14 above were tested for their potency against recombinant Aurora A (Upstate, Lake Placid, N.Y.) using the PanVera Z'-Lyte kinase assay kit—Ser/Thr 1 peptide (Invitrogen, Carlsbad, Calif.). Assays were carried out in kinase assay buffer (50 mM HEPES, pH 7.5, 10 mM MgCl2, 5 mM EGTA, 0.05% Brij-35, 2 mM DTT). Test compounds were initially dissolved in DMSO at 100× the highest tested concentration, then serially diluted to 4× test concentrations in kinase assay buffer. Next, Aurora A (final concentration 200-500 ng/mL), Z′-Lyte Ser/Thr 1 peptide (final concentration 2 μM) and ATP (final concentration 10 μM) were added according to the manufacturer's instructions. Assays were carried out in half-area 96-well white polystyrene assay plates (Corning, Corning, N.Y.) in a final volume of 20 μL. The reaction was allowed to proceed for 1 h at room temperature in the dark, at which point the development reagent and stop reagent were added according to the manufacturer's instructions. Coumarin (Ex. 400 nm, Em. 465 nm) and fluorescein (Ex. 400 nm, Em. 565 nm) fluorescence values were measured on a SpectraFluor Plus plate reader (Tecan, Durham, N.C.). The emission ratio (coumarin/fluorescein) was determined and used to calculate the percent phosphorylation for each well. Wells containing substrate but no kinase and wells containing a phosphopeptide control were used to set 0% and 100% phosphorylation values, respectively. Typically 20-40% of the substrate was phosphorylated in wells without inhibitor. Dose-response curves of relative Aurora A activity vs. inhibitor concentration were plotted with Grafit (Erithacus Software, Horley, Surrey, UK) and used to calculate IC50 values.

IC50 [2] [nM]	SMILES	GI50 [1] [nM]
< 100	Cc1cc(Nc2nc(Sc3ccc(NC(=O)C4CC4)cc3)nc(C(=O)OCCN3CCCCC3)c2N)n[nH]1 [Compound 48, 2-Piperidin-1-ylethyl 2-(4-cyclopropanecarboxamidophenylsulfanyl)-5-amino-6-(5-methylpyrazol-3-ylamino)-4-pyrimidinecarboxylate]	1000 to 10000
< 100	Cc1cc(Nc2nc(Sc3ccc(NC(=O)C4CC4)cc3)nc(C(=O)OC(C)C)c2N)n[nH]1 [Compound 49, Isopropyl 2-(4-cyclopropanecarboxamidophenylsulfanyl)-5-amino-6-(5-methylpyrazol-3-ylamino)-4-pyrimidinecarboxylate]	100 to 1000
< 100	Cc1cc(Nc2nc(Sc3ccc(NC(=O)C4CC4)cc3)nc(C(=O)OCCO)c2N)n[nH]1 [Compound 50, 2-Hydroxyethyl 2-(4-cyclopropanecarboxamidophenylsulfanyl)-5-amino-6-(5-methylpyrazol-3-ylamino)-4-pyrimidinecarboxylate]	1000 to 10000
< 100	Cc1cc(Nc2nc(Sc3ccc(NC(=O)C4CC4)cc3)nc(C(=O)Nc3ccncc3)c2N)n[nH]1 [Compound 51, N-Pyridin-4-yl 2-(4-cyclopropanecarboxamidophenylsulfanyl)-5-amino-6-(5-methylpyrazol-3-ylamino)-4-pyrimidinecarboxamide]	1000 to 10000
< 100	Cc1cc(Nc2nc(Sc3ccc(NC(=O)C4CC4)cc3)nc(C(=O)N3CCCCC3)c2N)n[nH]1 [Compound 53, Piperidin-1-yl 2-(4-cyclopropanecarboxamidophenylsulfanyl)-5-amino-6-(5-methylpyrazol-3-ylamino)-4-pyrimidinecarboxamide]	100 to 1000
< 100	Cc1cc(Nc2nc(Sc3ccc(NC(=O)C4CC4)cc3)nc(C(=O)NCC3CCCO3)c2N)n[nH]1 (stereo not shown) [Compound 54, N-(Tetrahydrofuran-2-ylmethyl) 2-(4-cyclopropanecarboxamidophenylsulfanyl)-5-amino-6-(5-methylpyrazol-3-ylamino)-4-pyrimidinecarboxamide]	100 to 1000
< 100	COCCCNC(=O)c1nc(Sc2ccc(NC(=O)C3CC3)cc2)nc(Nc2cc(C)[nH]n2)c1N [Compound 55, N-(3-Methoxypropyl) 2-(4-cyclopropanecarboxamidophenylsulfanyl)-5-amino-6-(5-methylpyrazol-3-ylamino)-4-pyrimidinecarboxamide]	100 to 1000
< 100	CSCCNC(=O)c1nc(Sc2ccc(NC(=O)C3CC3)cc2)nc(Nc2cc(C)[nH]n2)c1N [Compound 56, N-(2-Methylthioethyl) 2-(4-cyclopropanecarboxamidophenylsulfanyl)-5-amino-6-(5-methylpyrazol-3-ylamino)-4-pyrimidinecarboxamide]	100 to 1000
100 to 1000	Cc1cc(Nc2nc(Sc3ccc(NC(=O)C4CC4)cc3)nc(C(=O)NC(C)(C)C)c2N)n[nH]1 [Compound 57, N-(tert-Butyl) 2-(4-cyclopropanecarboxamidophenylsulfanyl)-5-amino-6-(5-methylpyrazol-3-ylamino)-4-pyrimidinecarboxamide]	1000 to 10000
< 100	Cc1cc(Nc2nc(Sc3ccc(NC(=O)C4CC4)cc3)nc(C(=O)NCc3ccco3)c2N)n[nH]1 [Compound 58, N-(2-Furylmethyl) 2-(4-cyclopropanecarboxamidophenylsulfanyl)-5-amino-6-(5-methylpyrazol-3-ylamino)-4-pyrimidinecarboxamide]	1000 to 10000
< 100	Cc1cc(Nc2nc(Sc3ccc(NC(=O)C4CC4)cc3)nc(C(=O)NCc3cccs3)c2N)n[nH]1 [Compound 59, N-(2-Thien-2-ylmethyl) 2-(4-cyclopropanecarboxamidophenylsulfanyl)-5-amino-6-(5-methylpyrazol-3-ylamino)-4-pyrimidinecarboxamide]	1000 to 10000
